The record followed here is PubChem BioAssay (NCI).

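Values below derive from 48-hour exposures of cells grown in 96-well plates, with endpoints linearly interpolated between the two concentrations bracketing the appropriate inhibition level. TGI: total growth inhibition.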

Holding throughout (assay): inhibition of tumour cell growth, NCI panel, 48 h
For assay [1], the system named is SK-MEL-5 melanoma.
Assay [2] concerns A549 NSCLC.
Assay [3] has as its system OVCAR-5 ovarian.
The subject of assay [4] is MCF7 breast.
For assay [5], the system named is MALME-3M melanoma.
In assay [6] the test system is HOP-62 NSCLC.
In assay [7] the test system is UO-31 renal.
Assay [8] has as its system SF-295 CNS.
Assay [9] concerns K-562 leukemia.
For assay [10], the system named is RXF 393 renal.

`NCCSc1nc2ccccc2c(=O)n1-c1ccccc1`: the TGI in [1], in [2], in assay [3], in assay [4], in assay [5] and in [6] was greater than 100 µM throughout. Besides, the TGI in [7], in assay [8] and in assay [9] was greater than 100 µM each time.

In the case of `CC1(CF)SCc2nc3ccccc3n21` (stereo unspecified), the TGI in assay [1], in [10], in assay [2], in assay [3], in [4] and in assay [5] was greater than 100 µM in each case. The TGI in assay [6], in assay [7] and in assay [8] was greater than 100 µM in each case.

As for `O=C1c2ccccc2C(=O)N1Cc1ccccc1-c1c2nc(c(-c3ccccc3CN3C(=O)c4ccccc4C3=O)c3ccc([nH]3)c(-c3ccccc3CN3C(=O)c4ccccc4C3=O)c3nc(c(-c4ccccc4CN4C(=O)c5ccccc5C4=O)c4ccc1[nH]4)C=C3)C=C2`, the TGI in [1], in assay [10], in assay [2], in assay [3], in [5] and in [6] was greater than 100 µM in each case. For the same molecule, the TGI in assay [7], in assay [8] and in assay [9] was greater than 100 µM each time.

Take `NC1=NS(=O)(=O)Nc2nc(-c3ccc(Cl)cc3)c(-c3ccc(Cl)cc3)nc21`: the TGI in [1], in assay [10], in [2], in [3], in assay [5] and in assay [6] was greater than 100 µM each time. Further, the TGI in assay [7], in assay [8] and in [9] was greater than 100 µM each time.

For the molecule `Cc1ccc(S(=O)(=O)OCC(=O)O)cc1`, the TGI in [1], in assay [10], in [2], in [3], in assay [5] and in [6] was greater than 100 µM in each case. In addition, the TGI in assay [7], in assay [8] and in assay [9] was greater than 100 µM in each case.

Turning to `NC1=NS(=O)(=O)Nc2nc(-c3ccc([N+](=O)[O-])cc3)[nH]c21`, the TGI in [1], in [10], in assay [2], in assay [3], in [5] and in [6] was greater than 100 µM throughout. Further, the TGI in assay [7], in assay [8] and in assay [9] was greater than 100 µM throughout.

`Nc1c(Cl)ncnc1N[C@@H]1C[C@H]1CO`: the TGI in [1], in [10], in [2], in assay [3], in [4] and in assay [6] was greater than 100 µM each time. The TGI in assay [7], in assay [8] and in assay [9] was greater than 100 µM each time.

As to `Cc1cc(C)[n+](CCOc2ccc(/C(=C(/Cl)c3ccccc3)c3ccccc3)cc2)c(C)c1`, the TGI in assay [1] was determined as 1.64 µM; in assay [10], 7.77 µM; in assay [2], 17.4 µM; in [3], 12.4 µM; in assay [5], 3.64 µM; in assay [6] it was 9.06 µM. Moreover, the TGI came to 35.7 µM in assay [7], 11.2 µM in assay [8] and 8.11 µM in assay [9].

As for `NC1=NS(=O)(=O)Nc2nc(-c3ccc([N+](=O)[O-])o3)[nH]c21`, the TGI is 33.4 µM in [1]; 25.5 µM in [10]; greater than 100 µM in assay [2]; 35 µM in assay [3]; 30.6 µM in [5]; 32.4 µM in [6]. Besides, the values for the TGI in assay [7], in assay [8] and in [9] were 36.5 µM, 29.8 µM and 22.9 µM, respectively.

In the case of `O=c1nc2c(c(-c3ccccc3Cl)[nH]1)COC/C2=C\c1ccccc1Cl`, the TGI in assay [1], in assay [10], in [3], in assay [4], in assay [6] and in assay [7] was greater than 100 µM in each case. The molecule further gave a TGI in assay [8] greater than 100 µM.

`CC(=O)OC1CC2C(C)(C)OC(=O)CC(OC(C)=O)[C@]2(C)C2CCC3(C)C(=CCC3[C@H]3COC(=O)C3)[C@]12C` (stereo partly specified): the TGI in assay [1], in assay [10], in assay [2], in assay [3], in assay [5] and in assay [6] was greater than 100 µM throughout. Further, the TGI in [7], in [8] and in [9] was greater than 100 µM in each case.

`COc1cc(Nc2c3ccccc3nc3ccccc23)ccc1NS(C)(=O)=O`: the TGI in assay [1] came to 28.6 µM; in assay [2] it was 12.3 µM; in assay [3], 23 µM; in assay [5] it was 21.7 µM; in assay [6], 24.3 µM; in assay [7], 16.9 µM. The TGI was 15.2 µM in assay [8] and greater than 100 µM in assay [9].

For `C1CNCCNCCN1`, the TGI in [1], in assay [10], in [2], in assay [3], in [4] and in assay [6] was greater than 100 µM each time. Moreover, the TGI in [7], in [8] and in assay [9] was greater than 100 µM each time.

Turning to `O=c1[nH]nc(Cc2ccc([N+](=O)[O-])cc2)n1CCO`, the TGI in [1], in [2], in assay [3], in [4], in [5] and in assay [7] was greater than 100 µM each time. Further, the TGI in assay [8] and in assay [9] was greater than 100 µM each time.

In the case of `CCN1C(=O)C(=C/C=C/c2ccc([N+](=O)[O-])cc2)C(=O)N(CC)C1=S`, the TGI was 42.8 µM in assay [1]; 33.1 µM in assay [10]; greater than 100 µM in assay [2]; greater than 100 µM in assay [3]; 52.5 µM in [4]; 39.2 µM in assay [6]. The TGI in [7] was 37.2 µM; in assay [8] it was greater than 100 µM; in assay [9], 48.4 µM.
